Earlier results, collected in patent EP4398053A1, “CONTROL METHOD FOR […] OF A DYNAMIC SYSTEM AND […]” (Universidade de Aveiro, priority 2023, dated 2024).

Details: drug elimination within the body; drug-specific model parameter

O=P1(N(CCCl)CCCl)NCCCO1 (stereo not shown) [Cyclophosphamide]
drug elimination rate λ: 4.16 day⁻¹
